Ends that are not written are not given here. Peptide text beside a SMILES is read from it.
How the values were obtained:
human mast cells = conditions: Stanworth et al. 1979; cited from earlier work
rodent mast cells = conditions: Stanworth et al. 1979; cited from earlier work
[1] = test system: human monocyte IgG Fc receptors; conditions: Ciccimarra et al. 1975; Ratcliffe and Stanworth 1982; cited from earlier work
[2] = test system: NEUTROPHIL (PMN) Fc Receptor IgG; experiment: Rosette inhibition assay, IgG-coated ox erythrocytes, fresh human PMNs; type: binding; conditions: relative to intact monomeric myeloma protein at equal concentration; 15 min preincubation
Protocol: (§1) The Fc receptor blocking activity of the subject peptides was assessed using well established techniques and procedures. In particular, a rosette assay was employed which uses either monomeric, chemically or heat aggregated human IgG or IgE obtained from human myeloma sera. (Gonzalez-Molina, et al., J. Clin. Invest., 59, 616 (1977); Spiegelberg, et al. in Immunoassays: Clinical Laboratory Techniques for the 1980's (Alan R. Liss: New York, 1980), pp. 287-300). The IgG or IgE is then adsorbed to ox-erythrocytes which has been previously treated with trypsin and pyruvic aldehyde. […] Addition of inhibitor myeloma proteins or inhibitor peptides produced a reproducable reduction of rosette formation, […], phosphate buffered isotonic saline, was used alone as control and then multiplying the calculated quotient by 100.
(§2) Table 1 presents the inhibition observed by representative peptide inhibitors calculated as a percentage of the inhibition observed with intact, monomeric myeloma proteins. […]

[3] = test system: MONOCYTE/MACROPHAGE Fc Receptor IgG; experiment: Rosette inhibition assay, IgG-coated ox erythrocytes, monocytes / U937; type: binding, human; conditions: relative to intact monomeric myeloma protein at equal concentration; 15 min preincubation
Protocol: as §1, §2

BASOPHIL Fc Receptor IgG = experiment: Rosette inhibition assay, IgG-coated ox erythrocytes, basophils; type: binding, human; conditions: relative to intact monomeric myeloma protein at equal concentration; 15 min preincubation
Protocol: as §1, §2

[4] = test system: granulocytes, monocytes and macrophages; conditions: in vitro; cited from earlier work
[5] = test system: systemic allergic disease; conditions: humans, subcutaneous injection; cited from earlier work
[6] = target: T1, IgE Fc receptor of human basophils (Homo sapiens, UniProt P12319); conditions: Plummer et al. 1983; cited from earlier work
T1 construct: host or cells: human basophils
T1 sequence (P12319 26-257): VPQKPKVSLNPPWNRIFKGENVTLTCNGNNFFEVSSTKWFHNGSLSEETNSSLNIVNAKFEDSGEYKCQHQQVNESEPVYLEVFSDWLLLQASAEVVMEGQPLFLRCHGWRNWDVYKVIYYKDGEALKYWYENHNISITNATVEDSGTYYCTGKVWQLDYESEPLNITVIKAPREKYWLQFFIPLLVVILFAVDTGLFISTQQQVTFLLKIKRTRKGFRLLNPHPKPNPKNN
T1 sequence (Q01362 1-244 partner): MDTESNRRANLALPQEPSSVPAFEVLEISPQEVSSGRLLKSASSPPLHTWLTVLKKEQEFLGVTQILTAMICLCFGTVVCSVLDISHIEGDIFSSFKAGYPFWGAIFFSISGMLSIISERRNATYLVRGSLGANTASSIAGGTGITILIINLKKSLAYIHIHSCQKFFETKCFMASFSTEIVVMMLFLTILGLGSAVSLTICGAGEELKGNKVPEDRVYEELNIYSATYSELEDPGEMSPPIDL
T1 sequence (P30273 19-86 partner): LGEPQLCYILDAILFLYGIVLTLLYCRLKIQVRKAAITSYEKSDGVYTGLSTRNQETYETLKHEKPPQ

Question: What does the source list for “PRKTKGSGFFVF [portion of Cε 4 of human IgE, aa 495-506]”?
Answer: degranulation of mast cells (human mast cells): cause degranulation; degranulation of mast cells (rodent mast cells): cause degranulation

Question: Which “blocking of IgG binding to human monocyte IgG Fc receptors” value [1] does the source give for “QYDSTYR [heptapeptide identical to IgG aa 295-301]” here?
Answer: slightly block

Question: For CC(=O)N[C@@H](CCC(N)=O)C(=O)N1CCC[C@H]1C(=O)N[C@@H](CCC(=O)O)C(=O)N[C@@H](CC(N)=O)C(=O)O [Ac--Gln--Pro--Glu--Asn, Ac-Gln-Pro-Glu-Asn] (Ac-QPEN-OH), which “Rosette inhibition expressed as percent inhibition by monomeric IgG, neutrophil (PMN) Fc receptor IgG” value [2] is on record?
Answer: 95%

Question: And the “Rosette inhibition expressed as percent inhibition by monomeric IgG, monocyte/macrophage Fc receptor IgG” value [3]?
Answer: 19%

Question: And the “Rosette inhibition expressed as percent inhibition by monomeric IgG, basophil Fc receptor IgG” value (BASOPHIL Fc Receptor IgG)?
Answer: 74%

Question: Which stimulation of phagocytosis [4] does the source give for “Gly-Gln-Pro-Arg (GQPR; printed: Gly-Gln-Pro-Arg) [Rigin, tetrapeptide analogue of Tuftsin]” here?
Answer: phagocytosis-stimulating abilities similar to those of Tuftsin

Question: With “Asp-Ser-Asp-Pro-Arg (DSDPR; printed: Asp-Ser-Asp-Pro-Arg) [pentapeptide derived from human IgE Cε 3 at aa 320-324]” as the compound, how does the “inhibition of systemic allergic disease” value [5] read?
Answer: inhibit systemic allergic disease

Question: And the “blocking of human IgE binding to basophil IgE Fc receptors” value [6]?
Answer: up to 70%

Source: patent publication US4683292A, “Immunotherapeutic polypeptide agents which bind to lymphocyte immunoglobulin FC receptors” (Immunetech, Inc., priority 1983, dated 1987)
